Values quoted from earlier work, collected in patent US20060127486A1, “Ceramic structures for prevention of drug diversion” (priority 2004, published 2006).

set-up: reference not given here; conditions: equianalgesic doses of various opioids, given as an aid to exact dose determination

SMILES	equianalgesic dose [mg]
COc1ccc2c3c1O[C@H]1[C@@H](O)C=C[C@H]4[C@@H](C2)N(C)CC[C@@]341 [codeine]	90.0
COc1ccc2c3c1O[C@H]1C(=O)CC[C@H]4[C@@H](C2)N(C)CC[C@]314 [hydrocodone]	15.0
CN1CC[C@]23CCCC[C@H]2[C@H]1Cc1ccc(O)cc13 [levorphanol]	1.8
CCC(=O)C(CC(C)N(C)C)(c1ccccc1)c1ccccc1 (stereo not shown) [methadone]	9.0
COc1ccc2c3c1O[C@H]1C(=O)CC[C@@]4(O)[C@@H](C2)N(C)CC[C@]314 [oxycodone]	13.5

same assay, conditions: in vivo

SMILES	equianalgesic dose [mg]
CCOC(=O)C1(c2ccccc2)CCN(C)CC1 [meperidine]	135.0
CN1CC[C@]23c4c5ccc(O)c4O[C@H]2[C@@H](O)C=C[C@H]3[C@H]1C5 [morphine]	27.0
